Assays:
mouse [1] = settings: Multigenerational reproductive toxicity study, cd1, Oral, Water, dose end: 2 generation
rat [2] = settings: Subchronic oral toxicity in rodents, fischer, Feed, dose end: 13 week, group: systemic
rabbit = settings: Prenatal developmental toxicity study; new zealand white; Oral; Gavage/Intubation; dose end: 19 GD; group: maternal; reproductive / reproductive performance / pregnancy / pregnancy + reproductive / reproductive performance / premature delivery / premature …
rat [3] = settings: Prenatal developmental toxicity study, sprague dawley, Oral, Gavage/Intubation, dose end: 20 GD
mouse [4] = settings: Multigenerational reproductive toxicity study, cd1, Oral, Water, dose end: 2 generation; remark: listed apart in the source
rat [5] = settings: Prenatal developmental toxicity study, sprague dawley, Oral, Gavage/Intubation, dose end: 15 GD
mouse [6] = settings: Subchronic oral toxicity in rodents, b6c3f1, Feed, dose end: 13 week, group: systemic, systemic / pathology microscopic / liver / degeneration + systemic / pathology microscopic / liver / hyalinization
mouse [7] = settings: Combined chronic toxicity/carcinogenicity, b6c3f1, Oral, Feed, dose end: 2 year, group: systemic
[8] = group: offspring, developmental / developmental malformation / eye / absent + developmental / developmental malformation / mouth / jaw / cleft lip + …
[9] = group: offspring, systemic / in life observation / body weight / offspring (pup) weight
[10] = group: parental, systemic / in life observation / water consumption / water consumption + systemic / organ weight / liver / absolute + systemic / in life …
[11] = group: parental, systemic / pathology gross / sperm measure / sperm count
[12] = group: reproductive, reproductive / offspring survival early / live fetuses / live fetuses
[13] = group: reproductive, reproductive / reproductive performance / fertility / fertility + reproductive / offspring survival early / live fetuses / live fetuses
[14] = systemic / clinical chemistry / creatinine / creatinine + systemic / clinical chemistry / urea nitrogen / urea nitrogen + systemic / in life…
[15] = systemic / clinical chemistry / urea nitrogen / urea nitrogen
[16] = group: developmental, developmental / developmental malformation / bone / absent + developmental / developmental malformation / bone / double-tipped + …
[17] = group: maternal, reproductive / reproductive performance / gestational length / gestational length + systemic / pathology microscopic / kidney / dilatation…
[18] = group: offspring, developmental / developmental malformation / bone / absent + developmental / developmental malformation / bone / fused + developmental / …
[19] = group: parental, systemic / in life observation / mortality / mortality
[20] = group: reproductive, reproductive / reproductive performance / fertility / fertility + reproductive / offspring survival early / litter size / litter size
[21] = group: developmental, developmental / developmental malformation / bone / absent + developmental / developmental malformation / bone / delayed ossification + …
[22] = group: maternal, systemic / in life observation / body weight / body weight + systemic / in life observation / body weight / body weight gain + reproductive…
[23] = systemic / pathology microscopic / liver / degeneration
[24] = systemic / pathology microscopic / liver / degeneration + systemic / pathology microscopic / lung / hyperplasia + systemic / pathology …

With `OCCO` [Ethylene glycol] the LOAEL (mouse [1]; [8]) was over 2000 mg/kg/day, the NOAEL (mouse [1]; [8]) was at least 2000 mg/kg/day and the LEL (mouse [1]; [9]) was 667 mg/kg/day. For the same molecule, the NEL (mouse [1]; [9]) was under 667 mg/kg/day, the LOAEL (mouse [1]; [10]) was over 2000 mg/kg/day and the NOAEL (mouse [1]; [10]) was at least 2000 mg/kg/day. For the same molecule, the LEL (mouse [1]; [11]) was 667 mg/kg/day, the NEL (mouse [1]; [11]) was under 667 mg/kg/day and the LEL (mouse [1]; [12]) was 1330 mg/kg/day. The NEL (mouse [1]; [12]) was 667 mg/kg/day, the LOAEL (mouse [1]; [13]) was over 2000 mg/kg/day and the NOAEL (mouse [1]; [13]) was at least 2000 mg/kg/day. The LOAEL (rat [2]; [14]) was 1250 mg/kg/day, the NOAEL (rat [2]; [14]) was 625 mg/kg/day and the LEL (rat [2]; [15]) was 160 mg/kg/day. It also gave an NEL (rat [2]; [15]) of under 160 mg/kg/day, an LEL (rabbit) of 2000 mg/kg/day and an LOAEL (rabbit) of over 2000 mg/kg/day. For the same molecule, the NEL (rabbit) was 1000 mg/kg/day, the NOAEL (rabbit) was at least 2000 mg/kg/day and the LOAEL (rat [3]; [16]) was over 2250 mg/kg/day. For the same molecule, the NEL (rat [3]; [16]) was 250 mg/kg/day, the NOAEL (rat [3]; [16]) was at least 2250 mg/kg/day and the LEL (rat [3]; group: developmental, developmental / developmental malformation / kidney / size + systemic / in life observation / body weight / fetal weight) was 1250 mg/kg/day. For the same molecule, the LEL (rat [3]; [17]) was 1250 mg/kg/day, the LOAEL (rat [3]; [17]) was over 2250 mg/kg/day and the NEL (rat [3]; [17]) was 250 mg/kg/day. The NOAEL (rat [3]; [17]) was at least 2250 mg/kg/day, the LEL (mouse [4]; [18]) was 1330 mg/kg/day and the LOAEL (mouse [4]; [18]) was over 1330 mg/kg/day. The NEL (mouse [4]; [18]) was 667 mg/kg/day, the NOAEL (mouse [4]; [18]) was at least 1330 mg/kg/day and the LEL (mouse [4]; [19]) was 667 mg/kg/day. It also gave an LOAEL (mouse [4]; [19]) of over 1330 mg/kg/day, an NEL (mouse [4]; [19]) of 333 mg/kg/day and an NOAEL (mouse [4]; [19]) of at least 1330 mg/kg/day. For the same molecule, the NEL (mouse [4]; group: reproductive, reproductive / reproductive performance / fertility / fertility) was 667 mg/kg/day, the LEL (mouse [4]; [20]) was 1330 mg/kg/day and the LOAEL (mouse [4]; [20]) was over 1330 mg/kg/day. The NOAEL (mouse [4]; [20]) was at least 1330 mg/kg/day, the LEL (rat [5]; [21]) was 2500 mg/kg/day and the LOAEL (rat [5]; [21]) was over 2500 mg/kg/day. The NEL (rat [5]; [21]) was under 2500 mg/kg/day, the NOAEL (rat [5]; [21]) was at least 2500 mg/kg/day and the LEL (rat [5]; [22]) was 2500 mg/kg/day. The LOAEL (rat [5]; [22]) was over 2500 mg/kg/day, the NEL (rat [5]; [22]) was under 2500 mg/kg/day and the NOAEL (rat [5]; [22]) was at least 2500 mg/kg/day. The LEL (mouse [6]) was 3750 mg/kg/day, the LOAEL (mouse [6]) was over 7500 mg/kg/day and the NEL (mouse [6]) was 1880 mg/kg/day. It also gave an NOAEL (mouse [6]) of at least 7500 mg/kg/day, an LEL (mouse [7]; [23]) of 1500 mg/kg/day and an NEL (mouse [7]; [23]) of under 1500 mg/kg/day. The LOAEL (mouse [7]; [24]) was over 12000 mg/kg/day and the NOAEL (mouse [7]; [24]) was at least 12000 mg/kg/day.

— EPA's ToxRefDB 2
